The source of these data is patent US20160159816A1, “SUBSTITUTED THIENOPYRIMIDINES AND PHARMACEUTICAL USE THEREOF” (BAYER PHARMA AKTIENGESELLSCHAFT, priority 2013, published 2016).

One may read the IC50 as the midpoint of a concentration-inhibition curve. Low values mean higher potency, high ones lower potency.

For this test, the target named is T1, human full-length MKNK1 (Homo sapiens, UniProt Q9BUB5, T385D).
T1 construct: GST (N); purchased Carna Biosciences 02-145; host or cells: insect cells, baculovirus expression system
T1 sequence (Q9BUB5 1-424 isoform Q9BUB5-2 T344D): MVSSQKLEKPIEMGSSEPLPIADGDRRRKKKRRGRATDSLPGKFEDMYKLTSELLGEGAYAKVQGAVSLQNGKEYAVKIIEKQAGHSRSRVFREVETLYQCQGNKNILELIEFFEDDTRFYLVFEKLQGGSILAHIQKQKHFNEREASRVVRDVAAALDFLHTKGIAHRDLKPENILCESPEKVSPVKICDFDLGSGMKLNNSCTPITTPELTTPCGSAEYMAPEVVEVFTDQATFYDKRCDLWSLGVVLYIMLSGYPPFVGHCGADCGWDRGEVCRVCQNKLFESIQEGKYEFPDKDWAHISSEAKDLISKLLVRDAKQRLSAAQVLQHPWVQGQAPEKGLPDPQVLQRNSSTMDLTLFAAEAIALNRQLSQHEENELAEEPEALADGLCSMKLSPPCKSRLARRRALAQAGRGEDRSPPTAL
Kind of test: MKNK1 kinase high ATP assay (TR-FRET). As to conditions: high ATP (2 mM), after preincubation with MKNK1; compounds of the present invention (Table 1a). Type of test: biochemical. How it is done:
MKNK1-inhibitory activity at high ATP of compounds of the present invention after their preincubation with MKNK1 was quantified employing the TR-FRET-based MKNK1 high ATP assay as described in the following paragraphs.
A recombinant fusion protein of Glutathione-S-Transferase (GST, N-terminally) and human full-length MKNK1 (amino acids 1-424 and T344D of accession number BAA 19885.1), expressed in insect cells using baculovirus expression system and purified via glutathione sepharose affinity chromatography, was purchased from Carna Biosciences (product no 02-145) and used as enzyme. As substrate for the kinase reaction the biotinylated peptide biotin-Ahx-IKKRKLTRRKSLKG (C-terminus in amide form) was used, which can be purchased e.g. from the company Biosyntan (Berlin-Buch, Germany).
For the assay 50 nL of a 100 fold concentrated solution of the test compound in DMSO was pipetted into a black low volume 384 well microtiter plate (Greiner Bio-One, Frickenhausen, Germany), 2 μL of a solution of MKNK1 in aqueous assay buffer [50 mM HEPES pH 7.5, 5 mM MgCl2, 1.0 mM dithiothreitol, 0.005% (v/v) Nonidet-P40 (Sigma)] was added and the mixture was incubated for 15 min at 22° C. to allow pre-binding of the test compounds to the enzyme before the start of the kinase reaction. Then the kinase reaction was started by the addition of 3 μL of a solution of adenosine-tri-phosphate (ATP, 3.3 mM=>final conc. in the 5 μL assay volume is 2 mM) and substrate (0.1 μM=>final conc. in the 5 μL assay volume is 0.06 μM) in assay buffer and the resulting mixture was incubated for a reaction time of 30 min at 22° C. The concentration of MKNK1 was adjusted depending of the activity of the enzyme lot and was chosen appropriate to have the assay in the linear range, typical concentrations were in the range of 0.003 μg/mL. The reaction was stopped by the addition of 5 μL of a solution of TR-FRET detection reagents (5 nM streptavidine-XL665 [Cisbio Bioassays, Codolet, France] and 1 nM anti-ribosomal protein […] (pSer236)-antibody from Invitrogen [#44921G] and 1 nM LANCE EU-W1024 labeled ProteinG [Perkin-Elmer, product no. AD0071]) in an aqueous EDTA-solution (100 mM EDTA, 0.1% (w/v) bovine serum albumin in 50 mM HEPES pH 7.5).
The resulting mixture was incubated for 1 h at 22° C. to allow the formation of complex between the phosphorylated biotinylated peptide and the detection reagents. Subsequently the amount of phosphorylated substrate was evaluated by measurement of the resonance energy transfer from the Eu-chelate to the streptavidine-XL. Therefore, the fluorescence emissions at 620 nm and 665 nm after excitation at 350 nm were measured in a TR-FRET reader, e.g. a Rubystar (BMG Labtechnologies, Offenburg, Germany) or a Viewlux (Perkin-Elmer). The ratio of the emissions at 665 nm and at […] was taken as the measure for the amount of phosphorylated substrate. The data were normalised (enzyme reaction without inhibitor=0% inhibition, all other assay components but no enzyme=100% inhibition). […] Table 1a lists MKNK1 high ATP IC50 values of some compounds of the present invention.
(In general: In TR-FRET formats the signal depends on donor and acceptor labels being close together.)
In turn, `COc1cc2[nH]ncc2cc1Nc1ncnc2sc3c(c12)CC[C@@](C)(C(=O)N(C)C)C3` [Example 49, (7R) 4-[(6-Methoxy-1H-indazol-5-yl)amino]-N,N,7-trimethyl-5,6,7,8-tetrahydro[1]benzothieno[2,3-d]pyrimidine-7-carboxamide] gave an IC50 of 0.0133 µM.

`CC[C@@]1(C(=O)N(C)C)CCc2c(sc3ncnc(Nc4cc5cn[nH]c5cc4OC)c23)C1` [Example 50, (7R) 7-Ethyl-4-[(6-methoxy-1H-indazol-5-yl)amino]-N,N-dimethyl-5,6,7,8-tetrahydro[1]benzothieno[2,3-d]pyrimidine-7-carboxamide] had a half-maximal inhibitory concentration (IC50) of 0.0196 µM. Turning to `CC[C@]1(C(=O)N(C)C)CCc2c(sc3ncnc(Nc4cc5cn[nH]c5cc4OC)c23)C1` [Example 51, (7S) 7-Ethyl-4-[(6-methoxy-1H-indazol-5-yl)amino]-N,N-dimethyl-5,6,7,8-tetrahydro[1]benzothieno[2,3-d]pyrimidine-7-carboxamide], half-maximal inhibition (IC50) required 0.0017 µM. As for `COc1cc2[nH]ncc2cc1Nc1ncnc2sc3c(c12)CC[C@](C)(C(=O)N1CCOCC1)C3` [Example 52, (7S) {4-[(6-Methoxy-1H-indazol-5-yl)amino]-7-methyl-5,6,7,8-tetrahydro[1]benzothieno[2,3-d]pyrimidin-7-yl}(morpholin-4-yl)methanone], the figure is 0.002 µM. As for `COc1cc2[nH]ncc2cc1Nc1ncnc2sc3c(c12)CC[C@@](C)(C(=O)N1CCOCC1)C3` [Example 53, (7R) {4-[(6-Methoxy-1H-indazol-5-yl)amino]-7-methyl-5,6,7,8-tetrahydro[1]benzothieno[2,3-d]pyrimidin-7-yl}(morpholin-4-yl)methanone], the IC50 turned out to be 0.0189 µM. Take `COc1cc2[nH]ncc2cc1Nc1ncnc2sc3c(c12)CC[C@](C)(C(=O)N1CCOC[C@H]1C)C3` [Example 54, (7S) {4-[(6-Methoxy-1H-indazol-5-yl)amino]-7-methyl-5,6,7,8-tetrahydro[1]benzothieno[2,3-d]pyrimidin-7-yl}[(3R)-3-methylmorpholin-4-yl]methanone]: the IC50 turned out to be 0.0043 µM. Take `COc1cc2[nH]ncc2cc1Nc1ncnc2sc3c(c12)CC[C@@](C)(C(=O)N1CCOC[C@H]1C)C3` [Example 55, (7R) {4-[(6-Methoxy-1H-indazol-5-yl)amino]-7-methyl-5,6,7,8-tetrahydro[1]benzothieno[2,3-d]pyrimidin-7-yl}[(3R)-3-methylmorpholin-4-yl]methanone]: the concentration for half-maximal inhibition (IC50) turned out to be 0.0333 µM.

In turn, `COCCN(C)C(=O)[C@@]1(C)CCc2c(sc3ncnc(Nc4cc5cn[nH]c5cc4OC)c23)C1` [Example 56, (7S) N-(2-Methoxyethyl)-4-[(6-methoxy-1H-indazol-5-yl)amino]-N,7-dimethyl-5,6,7,8-tetrahydro[1]benzothieno[2,3-d]pyrimidine-7-carboxamide] gave an IC50 of 0.0045 µM.

`COCCN(C)C(=O)[C@]1(C)CCc2c(sc3ncnc(Nc4cc5cn[nH]c5cc4OC)c23)C1` [Example 57, (7R) N-(2-Methoxyethyl)-4-[(6-methoxy-1H-indazol-5-yl)amino]-N,7-dimethyl-5,6,7,8-tetrahydro[1]benzothieno[2,3-d]pyrimidine-7-carboxamide] came in with an IC50 of 0.0214 µM.

`COc1cc2[nH]ncc2cc1Nc1ncnc2sc3c(c12)CC[C@](C)(C(=O)N(C)OC)C3` [Example 58, (7S) N-Methoxy-4-[(6-methoxy-1H-indazol-5-yl)amino]-N,7-dimethyl-5,6,7,8-tetrahydro[1]benzothieno[2,3-d]pyrimidine-7-carboxamide] returned an IC50 of 0.0025 µM.

As for `COc1cc2[nH]ncc2cc1Nc1ncnc2sc3c(c12)CC[C@@](C)(C(=O)N(C)OC)C3` [Example 59, (7R) N-Methoxy-4-[(6-methoxy-1H-indazol-5-yl)amino]-N,7-dimethyl-5,6,7,8-tetrahydro[1]benzothieno[2,3-d]pyrimidine-7-carboxamide], the IC50 amounted to 0.0129 µM.
